26 molecules from patent US20230031406A1, “COMPOUNDS AND COMPOSITIONS FOR TREATING CONDITIONS ASSOCIATED WITH NLRP ACTIVITY” (Novartis AG, priority 2018, published 2023) can be followed below.

Structures are written as SMILES.

In the first assay the test system is PMA-differentiated THP-1 cells. Put plainly: IL-1β production in PMA-differentiated THP-1 cells stimulated with gramicidin (hTHP-1 assay containing 2% fetal bovine serum; Procedures 1 and 2). It is filed as cell-based, human. As to conditions: Homo sapiens, THP-1, Table B1; 2% fetal bovine serum; numeric bounds; read-out: Average IC50 of compounds in hTHP-1 assay: hTHP-1 IC50. The method in brief:
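Human monocytic THP-1 cells, matured overnight with PMA at 20 ng/ml, are seeded in low-serum (2% FBS) RPMI. Test compounds, at final concentrations from 100 down to 0.0017 μM, precede gramicidin (5 μM, 2 h) by one hour. Released IL-1β is then determined by HTRF.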
Broadly, the IC50 is the midpoint of a concentration-inhibition curve. In the case of `CN(C)Cc1ccc(S(N)(=O)=NC(=O)Nc2c3c(nc4c2CCC4)CCC3)cc1` (single isomer, unassigned) [Compound 130a, (S) or (R)-4-((dimethylamino)methyl)-N′-((1,2,3,5,6,7-hexahydrodicyclo-penta[b,e]pyridin-8-yl)carbamoyl)benzene-sulfonamidamide], the IC50 was greater than 30 µM.
Same read-out and setting: then `NS(=O)(=NC(=O)Nc1c2c(nc3c1CCC31CC1)CCC2)c1ccn(C(F)F)n1` (single isomer, unassigned) [Compound 180b, (S) or (R)-1-(difluoromethyl)-N′-((1′,5′,6′,7′-tetrahydro-2′H-spiro[cyclopropane-1,3′-dicyclopenta[b,e]pryidin]-8′-yl)carbamoyl)-1H-pyrazole-3-sulfonimidamide], with greater than 30 µM.

The assay is the same for the next values; noted with them: Homo sapiens, THP-1, Table B2; 2% fetal bovine serum; class symbols; read-out: hTHP-1 IC50.
Consider `NS(=O)(=NC(=O)Nc1c2c(nc(C3CC3)c1C1CC1)CCC2)c1ccn(C(F)F)n1` (centres unmarked) [Compound 728], for which the IC50 is 1 to 5 µM.
Still for that read-out and setting: for `CC1CCc2c1nc1c(c2NC(=O)N=S(N)(=O)c2cn(C(C)C)cn2)CCC1` (single isomer, unassigned) [Compound 660d, (R, R) or (S, R) or (R, S) or (S, S)-1-isopropyl-N′-((3-methyl-1,2,3,5,6,7-hexahydrodicyclopenta [b,e]pyridin-8-yl)carbamoyl)-1H-imidazole-4-sulfonimidamide] the value was 5 to 30 µM; for `CC(C)(O)c1ncc(S(N)(=O)=NC(=O)Nc2c3c(nc4c2CC4)CCC3)s1` (centres unmarked) [Compound 672, 2-(2-Hydroxypropan-2-yl)-N′-((2,4,5,6-tetrahydro-1H-cyclobuta[b]cyclopenta[e]pyridin-7-yl)carbamoyl)thiazole-5-sulfonimidamide], 5 to 30 µM.
Still for that read-out and setting: then `Cc1c(C(F)(F)F)nc2c(c1NC(=O)N=[S@@](N)(=O)c1ccn(C)n1)CCC2` [Compound 730b], with 1 to 5 µM.
In the case of `CC(C)n1nc(S(N)(=O)=NC(=O)Nc2c3c(nc4c2CCC4(C)C)CCC3)cc1CO` (single isomer, unassigned) [Compound 652a], the IC50 was in the range of 0.2 to 1 µM.
On the same count and under the same terms, then `CC(C)n1nc(S(N)(=O)=NC(=O)Nc2c3c(nc4c2CCC4(C)C)CCC3)cc1C(C)(C)O` (single isomer, unassigned) [Compound 615b, (R) or (S)-N′-((3,3-dimethyl-1,2,3,5,6,7-hexahydrodicyclopenta [b,e]pyridin-8-yl)carbamoyl)-5-(2-hydroxypropan-2-yl)-1-isopropyl-1H-pyrazole-3-sulfonimidamide], with 1 to 5 µM; and `Cc1nc2c(c(NC(=O)N=S(N)(=O)c3ncc(C(C)(C)O)s3)c1C1CC1)CCC2` (centres unmarked) [Compound 618, N′-((3-cyclopropyl-2-methyl-6,7-dihydro-5H-cyclopenta[b]pyridin-4-yl)carbamoyl)-5-(2-hydroxypropan-2-yl)thiazole-2-sulfonimidamide], with 1 to 5 µM.

The assay is the same for the next values; noted with them: Homo sapiens, THP-1, Table B2; 2% fetal bovine serum; numeric bounds; read-out: hTHP-1 IC50.
As for `Cc1c(C2(C)CC2)nc2c(c1NC(=O)N=S(N)(=O)c1cc(C(C)(C)O)cs1)CCC2` (single isomer, unassigned) [Compound 669a, (S) or (R)-4-(2-Hydroxypropan-2-yl)-N′-((3-methyl-2-(1-methylcyclopropyl)-6,7-dihydro-5H-cyclopenta[b]pyridin-4-yl)carbamoyl) thiophene-2-sulfonimidamide], the IC50 was greater than 30 µM.
Consider `CC(C)(O)c1cnc(S(N)(=O)=NC(=O)Nc2c3c(nc4c2CCC4O)CCC3)s1` (centres unmarked) [Compound 710], for which the IC50 was greater than 30 µM.

Staying with this assay, now noted: Homo sapiens, THP-1, Table B3; hTHP-1 assay, 2% fetal bovine serum; class symbols; read-out: IC50.
`C[C@H](O)c1csc([S@](N)(=O)=NC(=O)Nc2c3c(nc4c2CC[C@H]4C)CCC3)c1` (single isomer, unassigned) [Example 664, (R)-4-((S) or (R)-1-hydroxyethyl)-N′-(((R)-3-methyl-1,2,3,5,6,7-hexahydrodicyclopenta[b,e]pyridin-8-yl)carbamoyl) thiophene-2-sulfonimidamide]: the IC50 lay within 0.04 to 0.2 µM.
Same read-out and setting: for `Cc1c(C(F)(F)F)nc2c(c1NC(=O)N=S(N)(=O)c1ccn(C)n1)CCC2` (centres unmarked) [Example 633, 1-Methyl-N′-((3-methyl-2-(trifluoromethyl)-6,7-dihydro-5H-cyclopenta[b]pyridin-4-yl)carbamoyl)-1H-pyrazole-3-sulfonimidamide] the value was 5 to 30 µM; for `CCc1ncc(S(N)(=O)=NC(=O)Nc2c3c(nc4c2CC[C@H]4C)CCC3)s1` (stereo partly drawn) [Example 629, 2-Ethyl-N′-(((R)-3-methyl-1,2,3,5,6,7-hexahydrodicyclopenta[b,e]pyridin-8-yl)carbamoyl)thiazole-5-sulfonimidamide], 0.2 to 1 µM; for `Cc1c(C(F)(F)F)nc2c(c1NC(=O)N=S(N)(=O)c1nn(C(F)F)cc1F)CCC2` (centres unmarked) [Example 561, 1-(Difluoromethyl)-4-fluoro-N′-((3-methyl-2-(trifluoromethyl)-6,7-dihydro-5H-cyclopenta[b]pyridin-4-yl)carbamoyl)-1H-pyrazole-3-sulfonimidamide], 0.2 to 1 µM.

The assay is the same for the next values; noted with them: Homo sapiens, THP-1, Table B3; hTHP-1 assay, 2% fetal bovine serum; numeric values; read-out: IC50.
`CN(C)Cc1nc(C(C)(C)O)sc1S(N)(=O)=NC(=O)Nc1c2c(nc3c1CCC3(C)C)CCC2` (centres unmarked) [compound 592, N′-((3,3-dimethyl-1,2,3,5,6,7-hexahydrodicyclopenta[b,e]pyridin-8-yl)carbamoyl)-4-((dimethylamino)methyl)-2-(2-hydroxypropan-2-yl)thiazole-5-sulfonimidamide]: the IC50 was greater than 30 µM.
On the same count and under the same terms, for `Cc1c(C(F)(F)F)nc2c(c1NC(=O)N=S(N)(=O)c1cnn3c1OCCC3)CCC2` (single isomer, unassigned) [Example 658, (S) or (R)-N′-((3-methyl-2-(trifluoromethyl)-6,7-dihydro-5H-cyclopenta[b]pyridin-4-yl)carbamoyl)-6,7-dihydro-5H-pyrazolo[5,1-b][1,3] oxazine-3-sulfonimidamide] the value was greater than 30 µM.

Still in this assay, the particulars now being: Homo sapiens, THP-1, Table B4; 2% fetal bovine serum; class symbols; read-out: hTHP-1 IC50.
With `CCn1cc(F)c(S(N)(=O)=NC(=O)Nc2c3c(nc(C(F)(F)F)c2-c2ccc(F)cc2)CCC3)n1` (centres unmarked) [Example 733, 1-Ethyl-4-fluoro-N′-((3-(4-fluorophenyl)-2-(trifluoromethyl)-6,7-dihydro-5H-cyclopenta[b]pyridin-4-yl)carbamoyl)-1H-pyrazole-3-sulfonimidamide], the IC50 lay in the range of 0.04 to 0.2 µM.

The same assay, now with this note: Table B1; 2% fetal bovine serum; class symbols; read-out: Average IC50 of compounds in hTHP-1 assay: hTHP-1 IC50.
Regarding `CC1CCc2c1nc1c(c2NC(=O)N=S(N)(=O)c2cc(C(C)(C)O)cs2)CCC1` (single isomer, unassigned) [Compound 141aa, (R,R) or (R,S)-4-(2-hydroxypropan-2-yl)-N′-((3-methyl-1,2,3,5,6,7-hexahy-drodicyclopenta[b,e]pyridin-8-yl)carbamoyl)thiophene-2-sulfonimidamide], the IC50 is 0.008 to 0.04 µM.
As for `CC1CCc2c1nc1c(c2NC(=O)N=S(N)(=O)c2ncc(C(C)(C)O)s2)CCC1` (single isomer, unassigned) [Compound 140ba, (S,S) or (S,R)-5-(2-hydroxypropan-2-yl)-N′-((3-methyl-1,2,3,5,6,7-hexa-hydrodicyclo-penta[b,e]pyridin-8-yl)carbamoyl)thiazole-2-sulfonimidamide], the IC50 was in the range of 5 to 30 µM.
The same measure, in the same setting: for `CC1CCc2c1nc1c(c2NC(=O)N=S(N)(=O)c2ccn(C(F)F)n2)CCC1` (single isomer, unassigned) [Compound 184a, (R,R) or (R,S)-1-(difluoro-methyl)-N′-((3-methyl-1,2,3,5,6,7-hexahydro-dicyclopenta[b,e]pyridin-8-yl)carbamoyl)-1H-pyrazole-3-sulfonimidamide] the value was 0.04 to 0.2 µM.

The assay is the same for the next values; noted with them: Table B2; 2% fetal bovine serum; class symbols; read-out: hTHP-1 IC50.
Take `COCc1nc(C(C)(C)O)sc1S(N)(=O)=NC(=O)Nc1c2c(nc3c1CCC3(C)C)CCC2` (single isomer, unassigned) [Compound 170b, (S) or (R)-N′-((3,3-dimethyl-1,2,3,5,6,7-hexahydrodicyclopenta [b,e]pyridin-8-yl)carbamoyl)-2-(2-hydroxypropan-2-yl)-4-(methoxymethyl) thiazole-5-sulfonimidamide]: the IC50 lay within 5 to 30 µM.
On the same count and under the same terms, for `Cc1c(C(F)(F)F)nc2c(c1NC(=O)N=S(N)(=O)c1cnc(C(C)(O)CO)s1)CCC2` (single isomer, unassigned) [Compound 605b, (R, R) and (S, R) or (R, S) and (S, S)-2-(l,2-Dihydroxypropan-2-yl)-N′-((3-methyl-2-(trifluoromethyl)-6,7-dihydro-5H-cyclopenta[b]pyridin-4-yl)carbamoyl) thiazole-5-sulfonimidamide] the value was 0.2 to 1 µM; for `Cc1c(C2CC2)nc2c(c1NC(=O)N=S(N)(=O)c1cc(C(C)(C)O)cs1)CCC2C` (single isomer, unassigned) [Compound 656b, (S, S) or (S, R) or (R, S) or (R, R)-N′-((2-Cyclopropyl-3,7-dimethyl-6,7-dihydro-5H-cyclopenta[b]pyridin-4-yl)carbamoyl)-4-(2-hydroxypropan-2-yl)thiophene-2-sulfonimidamide], 5 to 30 µM.
Regarding `CCc1c(C2CC2)nc2c(c1NC(=O)N=S(N)(=O)c1cnc(C(C)(C)O)s1)CCC2` (single isomer, unassigned) [Compound 675b, (S) or (R)-N′-((2-cyclopropyl-3-ethyl-6,7-dihydro-5H-cyclopenta[b]pyridin-4-yl)carbamoyl)-2-(2-hydroxypropan-2-yl)thiazole-5-sulfonimidamide], the IC50 was in the range of 5 to 30 µM.
For the molecule `Cc1c(C2CC2)nc2c(c1NC(=O)N=S(N)(=O)c1cc(C(C)(C)O)cs1)CCC2C` (single isomer, unassigned) [Compound 656a, (R, R) or (R, S) or (S, R) or (S, S)-N′-((2-Cyclopropyl-3,7-dimethyl-6,7-dihydro-5H-cyclopenta[b]pyridin-4-yl)carbamoyl)-4-(2-hydroxypropan-2-yl)thiophene-2-sulfonimidamide], the IC50 is 0.2 to 1 µM.
